Laboratory results published in PubChem BioAssay (NCI).
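48-hour exposure; five concentrations; linearly interpolated endpoints. TGI: concentration producing complete growth inhibition.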

Assays:
Experiment in all cases: NCI tumour cell line growth inhibition, 48 h
HL-60(TB) leukemia = system: HL-60(TB) leukemia
U251 CNS = system: U251 CNS
SK-MEL-5 melanoma = system: SK-MEL-5 melanoma
SN12C renal = system: SN12C renal
SF-295 CNS = system: SF-295 CNS
SK-MEL-2 melanoma = system: SK-MEL-2 melanoma
NCI-H23 lung = system: NCI-H23 lung
MDA-N = system: MDA-N
HCT-116 colon = system: HCT-116 colon
786-0 renal = system: 786-0 renal
HOP-92 NSCLC = system: HOP-92 NSCLC
OVCAR-3 ovarian = system: OVCAR-3 ovarian
RPMI-8226 leukemia = system: RPMI-8226 leukemia
NCI-H460 lung = system: NCI-H460 lung
OVCAR-4 ovarian = system: OVCAR-4 ovarian
HT29 colon = system: HT29 colon
A498 renal = system: A498 renal
UACC-257 melanoma = system: UACC-257 melanoma
NCI-H522 lung = system: NCI-H522 lung
BT-549 breast = system: BT-549 breast

Row | SMILES | TGI (HL-60(TB) leukemia) [µM] | TGI (U251 CNS) [µM] | TGI (SK-MEL-5 melanoma) [µM] | TGI (SN12C renal) [µM] | TGI (SF-295 CNS) [µM] | TGI (SK-MEL-2 melanoma) [µM] | TGI (NCI-H23 lung) [µM] | TGI (MDA-N) [µM] | TGI (HCT-116 colon) [µM] | TGI (786-0 renal) [µM] | TGI (HOP-92 NSCLC) [µM] | TGI (OVCAR-3 ovarian) [µM] | TGI (RPMI-8226 leukemia) [µM] | TGI (NCI-H460 lung) [µM] | TGI (OVCAR-4 ovarian) [µM] | TGI (HT29 colon) [µM] | TGI (A498 renal) [µM] | TGI (UACC-257 melanoma) [µM] | TGI (NCI-H522 lung) [µM] | TGI (BT-549 breast) [µM]
1 | CO/C(=N\N=C\c1ccc(Cl)c(Cl)c1)c1ccncc1 | > 10 | > 10 | > 10 | > 10 | > 10 | > 10 | > 10 | > 10 | > 10 | > 10 | > 10 | > 10 | > 10 | > 10 | – | – | – | – | – | –
2 | COc1ccc(C2Cc3cc(OC)c(OC)c(OC)c3C2)cc1 (stereo unspecified) | – | > 100 | 31.3 | > 100 | > 100 | > 100 | > 100 | – | > 100 | > 100 | – | > 100 | 98.9 | > 100 | > 100 | 79.6 | > 100 | > 100 | – | –
3 | CCCCCCCCCCCCOCC1(COCCCCCCCCCCCC)COC(c2ccc(N)cc2)OC1 | – | > 100 | > 100 | > 100 | > 100 | > 100 | > 100 | > 100 | > 100 | > 100 | – | > 100 | > 100 | – | > 100 | > 100 | > 100 | > 100 | – | –
4 | COc1cc([C@@H]2c3cc4c(cc3[C@@H](NCc3cccc(C#N)c3)C3COC(=O)[C@@H]32)OCO4)cc(OC)c1O (stereo partly specified) | 1.51 | 1.93 | 13 | 2.93 | 7 | 8.78 | 1.76 | – | 21.4 | 2.62 | 9.83 | 8.47 | 7.33 | 2.09 | > 100 | 5.51 | 4.27 | > 100 | 3.56 | –
5 | CN1CCc2ccccc2C(C(=O)c2ccc3c(c2)OCO3)C1=O (stereo unspecified) | > 100 | > 100 | > 100 | > 100 | – | > 100 | > 100 | – | > 100 | > 100 | > 100 | > 100 | > 100 | > 100 | > 100 | > 100 | > 100 | > 100 | > 100 | –
6 | CCOC(=O)C1=C(OC(OCC)C(CC)[Se]c2ccccc2)CCC1 (stereo unspecified) | 39.1 | 25.3 | 31.2 | 47.2 | 65.5 | > 100 | 27.5 | – | > 100 | 30.5 | 45.8 | 69.3 | 53.2 | > 100 | 28 | 58.1 | > 100 | 77.4 | 29.1 | –
7 | COC(=O)/C=C(\C)CCC1SC1(C)C (stereo unspecified) | > 100 | > 100 | > 100 | > 100 | > 100 | > 100 | > 100 | – | > 100 | > 100 | – | – | > 100 | > 100 | > 100 | > 100 | > 100 | > 100 | > 100 | –
8 | COc1ccc2[nH]c3c(c2c1)[C@H]1CCC(C(C)(C)C)C[C@H]1[C@H]1C(=O)N(c2ccccc2)C(=O)[C@@H]31 (stereo partly specified) | > 100 | 19.2 | > 100 | > 44.5 | > 42.5 | 58 | > 52.1 | – | > 100 | 15.6 | 21 | > 58.9 | > 100 | > 53.6 | 14.4 | > 100 | 44.1 | > 80.6 | > 49.5 | –
9 | O=C(NCCN1CCCCC1)c1cccc(I)c1 | > 100 | > 100 | > 100 | > 100 | – | – | > 100 | – | – | > 100 | > 100 | > 100 | > 100 | > 100 | > 100 | > 100 | > 100 | – | – | > 100
10 | O=[N+]([O-])c1cccc(Nc2nc(Cl)nc(Cl)n2)c1 | – | > 100 | > 100 | > 100 | > 100 | > 100 | > 100 | – | > 100 | > 100 | – | > 100 | > 100 | > 100 | > 100 | > 100 | – | > 100 | > 100 | –
11 | C=C1C(=O)O[C@H]2C1C[C@H](O)[C@@]1(C)OC1CC[C@@]1(C)O[C@H]21 (stereo partly specified) | – | > 100 | 35.4 | 32.4 | > 100 | 55.3 | 39.2 | – | 30.2 | 37.1 | 36.5 | – | 30.2 | > 100 | 29.6 | > 100 | – | 37.8 | 11.9 | 26.9
